US4390523A, “Sorbose for inhibiting fermentation acids in the mouth” (priority 1972, dated 1983)
“And” between values parts separate entries of the source, which are not always exact repeats. Equal entries are not always repeated. “Also recorded” adds a separate entry of the source. Where two headings read alike, the source gives them in different places.

What was measured:
[1] = tested on: oral bacteria (dilute human saliva); assay: Formation of acids and lowering of pH by fermentation by oral bacteria (Table III); format: cell-based; settings: for pH of medium / NaOH necessary for neutralization: 1 ml of 18% solution in 10 ml medium; for pH of medium: saliva, 37° C.; for NaOH necessary for neutralization: N/40 NaOH; for formation of acids / acidification (conclusion) / lowering of the pH to: medium inoculated with dilute saliva
Experimental: A series of tubes containing 10 ml of a sugarless nutritive culture medium at pH 7 was prepared. These tubes were sterilized by passing them through an autoclave at 120° C. for 20 minutes.
1 ml of sterile water was introduced into a first series of five tubes to make a control series.
1 ml of a sterile 18% solution of dextrose (weight/volume=W/V) was introduced into a second series of five tubes.
1 ml of a sterile 18% solution of saccharose (W/V) was introduced into a third series of five tubes.
1 ml of a sterile 18% solution of sorbose (W/V) was introduced into a fourth series of five tubes.
The sterile solutions of dextrose, saccharose and sorbose were obtained by sterilizing filtration by the usual technique.
A dilution of human saliva was prepared for immediate use and four tubes of each series were inoculated with the same volume of dilute saliva.
The formation of acids was followed by electric measurement of the pH and by determination of the quantity of acids formed; this determination was effected with a N/40 sodium/hydroxide solution, phenolphthalein being used as a neutralization indicator; a first determination was made before incubation, the following four determinations after incubations of 3, 6, 10 and 24 hours, respectively, at 37° C.
The results are assembled in Table III (pH value and value of the number of ml of sodium hydroxide necessary for neutralization).

[2] = tested on: oral bacteria (dilute human saliva); settings: background statement; cited from earlier work
[3] = cited from earlier work
[4] = cited from earlier work; remark: listed apart in the source
[5] = Acute toxicity and lethalness of sorbose in rats; format: in vivo, WISTAR rat; settings: rat, in vivo, ip; intraperitoneal; WISTAR rats; Karber and Behrens method; read-out: lethal dose 50 (LD50)
Experimental: (§1) The toxicity of sorbose has been studied in a first series of tests.
(§2) The test animals were ROCKFELLER mice and WISTAR rats.
(§3) Thus, solutes of sorbose (concentrations used: 615, 700, 900, 1000 and 1100 mg per ml) were administered orally, intravenously and intraperitoneally in different doses and concentrations to male mice of the ROCKFELLER type and to male rats of the WISTAR type.

[6] = tested on: male rats of the WISTAR type; assay: Acute toxicity and lethalness of sorbose in rats; format: in vivo, WISTAR rat; settings: rats
Experimental: as §1, §2, §3

[7] = rat, in vivo, po
Experimental: (§4) This test was carried on for four weeks and three months. Each morning, 1 milliliter per 100 grams of body weight of a sorbose solute in water containing 0.330 g/ml was administered orally to each of the animals.
(§5) The examinations of the blood comprised the following:
(§6) determination of the true glycemia (glucose-oxydase dosage),
(§7) determination of the ionemia (chlorides-phosphates-bicarbonates-sodium-potassium), azotemia, proteinemia, albuminemia, calcemia, cholesterolemia, uricemia and creatinemia, the total bilirubinemia and the levels of the alkaline phosphatases, the creatine-phosphokinases and the glutamino-oxaloacetic transaminases (these determinations were effected with the aid of a Technicon SM A 6+SM A 12 autoanalyzer).
(§8) These biological tests were carried out first on animals fed normally and then on the same animals in the course of the following weeks during which sorbose was being administered as a supplement to the food ration, as hereinbefore described.

[8] = Clinical observation and weight development during oral administration of sorbose (food value); format: in vivo, WISTAR rat; settings: 0.330 g per 100 g of body weight orally
Source text: The food value of sorbose has been studied in a second series of tests.

[9] = Chromatographic examination of the urine of animals ingesting sorbose; format: in vivo, WISTAR rat
Experimental: Thus, sorbose was administered orally to rats of the WISTAR type, as a supplement to the usual food ration, in a dose of 0.330 grams per 100 grams of body weight; such a dose would correspond to a daily intake of 198 grams of sorbose in a 60 kg person. This test was carried on for four weeks and three months. Each morning, 1 milliliter per 100 grams of body weight of a sorbose solute in water containing 0.330 g/ml was administered orally to each of the animals.

[10] = Urinary biological parameters before and during oral administration of sorbose (Table I); format: in vivo, WISTAR rat
Experimental: In the course of this experiment, detailed biological examinations concerning the urine and blood were carried out.
The urine examinations comprised the following: determination of the reducing power (copper-neocuproin method), determination of the true glycosuria (glucose-oxydase method), determination of the proteinuria, measurement of the urinary pH, determination of the urinary ionogram relating to the chlorine ions, sodium and potassium.

man = assay: Hypersorbemia produced in man; format: in vivo; settings: 1 gram per kg, empty stomach, in one lot
Experimental: To complete the tests concerned with animals, tests were carried out for hypersorbemia produced in man (ingestion on an empty stomach in one lot of a dose of sorbose equivalent to 1 gram per kg of weight).

[11] = Biological parameters of blood before and during oral administration of sorbose (Table II); settings: WISTAR rats, oral ingestion
Experimental: as §4, §5, §6, §7, §8

[12] = tested on: male mice of the ROCKFELLER type; assay: Acute toxicity and lethalness of sorbose in mice; format: in vivo, ROCKFELLER mouse; settings: mice
Experimental: as §1, §2, §3

[13] = Acute toxicity and lethalness of sorbose in mice; format: in vivo, ROCKFELLER mouse; settings: mouse, in vivo, ip; intraperitoneal; ROCKFELLER mice; Karber and Behrens method; read-out: lethal dose 50 (LD50)
Experimental: as §1, §2, §3

[14] = tested on: ROCKFELLER mice and WISTAR rats; assay: Overall toxicity and tolerance tests of sorbose in mice and rats; format: in vivo, mouse; rat
Source text: as §1, §2

[15] = tested on: viscera: stomach, small intestine, large intestine, liver, kidneys and pancreas; assay: Anatomical and histopathological observations at the end of the tests; format: in vivo, WISTAR rat
Source text: At the end of the tests the animals were put to death so that anatomical and histopathological observations could be made.

[16] = 330 mg/100 g oral, a = first week, rats 1-6
[17] = 330 mg/100 g oral, b = fifth week, rats 1-6
[18] = 330 mg/100 g oral, c = thirteenth week, rats 1-6
[19] = prolonged administration orally and in high doses

O=C[C@H](O)[C@@H](O)[C@H](O)[C@H](O)CO [dextrose]
pH of medium ([1]; 0 hours): 7.0
NaOH necessary for neutralization ([1]; 0 hours): 2.50 mL
pH of medium ([1]; 3 hours): 6.90
NaOH necessary for neutralization ([1]; 3 hours): 2.25 mL
pH of medium ([1]; 6 hours): 6.80
NaOH necessary for neutralization ([1]; 6 hours): 2.40 mL
pH of medium ([1]; 10 hours): 6.50
NaOH necessary for neutralization ([1]; 10 hours): 2.80 mL
pH of medium ([1]; 24 hours): 5.30
NaOH necessary for neutralization ([1]; 24 hours): 5.70 mL
formation of acids / acidification (conclusion) [1]: distinct acidification
lowering of the pH to [1]: 5.3
formation of acids and lowering of pH under the action of mouth bacteria (general statement) [2]: give rise to a lowering of the pH and a considerable production of acids

O=C(CO)[C@@H](O)[C@H](O)[C@H](O)CO [levulose, reference compound]
hygroscopicity ([3]; printed as "hydroscopic"): very hydroscopic

OC[C@@H](O)[C@@H](O)[C@H](O)[C@H](O)CO [mannitol]
laxative effect ([4]; in vivo): laxative in high doses

OC[C@H]1O[C@@](CO)(O[C@H]2O[C@H](CO)[C@@H](O)[C@H](O)[C@H]2O)[C@@H](O)[C@@H]1O [saccharose]
pH of medium ([1]; 0 hours): 7.0
NaOH necessary for neutralization ([1]; 0 hours): 2.50 mL
pH of medium ([1]; 3 hours): 6.90
NaOH necessary for neutralization ([1]; 3 hours): 2.45 mL
pH of medium ([1]; 6 hours): 6.90
NaOH necessary for neutralization ([1]; 6 hours): 2.40 mL
pH of medium ([1]; 10 hours): 6.10
NaOH necessary for neutralization ([1]; 10 hours): 3.20 mL
pH of medium ([1]; 24 hours): 5.10
NaOH necessary for neutralization ([1]; 24 hours): 6.10 mL
formation of acids / acidification (conclusion) [1]: distinct acidification
lowering of the pH to [1]: 5.1
cariogenic properties [2]: has cariogenic properties
formation of acids and lowering of pH under the action of mouth bacteria (general statement) [2]: give rise to a lowering of the pH and a considerable production of acids

OC[C@@H](O)[C@@H](O)[C@H](O)[C@@H](O)CO [sorbitol]
laxative effect ([4]; in vivo): laxative in high doses

O=C(CO)[C@H](O)[C@@H](O)[C@H](O)CO [sorbose]
pH of medium ([1]; 0 hours): 7.0
NaOH necessary for neutralization ([1]; 0 hours): 2.50 mL
pH of medium ([1]; 3 hours): 6.80
NaOH necessary for neutralization ([1]; 3 hours): 2.25 mL
pH of medium ([1]; 6 hours): 6.90
NaOH necessary for neutralization ([1]; 6 hours): 2.20 mL
pH of medium ([1]; 10 hours): 6.80
NaOH necessary for neutralization ([1]; 10 hours): 1.90 mL
pH of medium ([1]; 24 hours): 6.80
NaOH necessary for neutralization ([1]; 24 hours): 1.90 mL
formation of acids / acidification (conclusion) [1]: does not give rise to the formation of acids or to a lowering of the pH; also recorded: does not lead, by fermentation by bacteria of the mouth, to the production of fermentation acids or to a lowering of the pH; also recorded: no formation of acids or lowering of the pH; also recorded: does not give rise to the formation of acids by oral bacteria
cariogenicity (conclusion) ([1]; oral bacteria): non-cariogenic
LD50 [5]: 12800 mg/kg
dose at which no lethalness was observed ([6]; intravenously): 5.5 grams per kg of body weight
dose at which no lethalness was observed ([6]; orally): 11 grams per kg of body weight
serobiogram (conclusion) [7]: does not modify the serobiogram
total reducing power of the serum (conclusion) [7]: does not modify the value of the true glycemia or that of the total reducing power of the serum
clinically detectable anomalies ([8]; four weeks and three months): no clinically detectable anomalies were observed
weight development ([8]; versus control animals): comparable to that observed in control animals
solubility in alcohol [3]: not very soluble in alcohol
solubility in water [3]: rather soluble in water
glucose and sorbose in the urine by chromatographic examination [9]: absence of glucose and the presence of sorbose
physiological proteinuria (conclusion) ([10]; 330 mg/100 g oral, 13 weeks): does not lead to a significant modification of the physiological proteinuria
reducing power in the urine (conclusion) ([10]; 330 mg/100 g oral, 13 weeks): causes the appearance of the reducing power in the urine
urinary ionogram (conclusion) ([10]; 330 mg/100 g oral, 13 weeks): does not modify the urinary ionogram
urinary pH (conclusion) ([10]; 330 mg/100 g oral, 13 weeks): does not modify the urinary pH
urinary potassium [10, 16]: 1.10 meq/24 h and 1.03 meq/24 h and 1.68 meq/24 h and 1.26 meq/24 h and 1.48 meq/24 h and 1 meq/24 h
urinary total reducing power [10, 16]: 56 mg/24 h and 30 mg/24 h and 39 mg/24 h and 38 mg/24 h and 35 mg/24 h and 28 mg/24 h
urinary chlorides [10, 17]: 1.27 meq/24 h and 0.90 meq/24 h and 1.11 meq/24 h and 1.56 meq/24 h and 1.00 meq/24 h and 1.46 meq/24 h
urinary pH [10, 17]: 8.5 and 8.2 and 9.2 and 9.1
urinary chlorides [10, 18]: 0.92 meq/24 h and 0.79 meq/24 h and 0.70 meq/24 h and 0.90 meq/24 h and 1.08 meq/24 h and 0.76 meq/24 h
urinary pH [10, 18]: 9 and 8.5 and 8.8 and 9.1
urinary potassium [10, 18]: 1.19 meq/24 h and 0.99 meq/24 h and 1.20 meq/24 h and 1.26 meq/24 h and 1.08 meq/24 h
urinary sodium [10, 18]: 0.39 meq/24 h and 0.34 meq/24 h and 0.54 meq/24 h and 0.45 meq/24 h and 0.46 meq/24 h and 0.61 meq/24 h
urinary total reducing power [10, 18]: 36 mg/24 h and 31 mg/24 h and 32 mg/24 h and 41 mg/24 h
glycosuria ([10]; during oral administration, 330 mg/100 g, 13 weeks): No glycosuria was detected; also recorded: does not result in true glycosuria
tolerance in man (man): well tolerated
total reducing power of the blood in man (man): heightening of the total reducing power of the blood, which disappeared in a few hours
true glycemia in man (man): did not produce any variation in the true glycemia
tolerance (conclusion from the biological analyses) [11]: tolerated perfectly
dose at which no lethalness was observed ([12]; intravenously): 10 grams per kg of body weight
dose at which no lethalness was observed ([12]; orally): 27.5 grams per kg of body weight
LD50 [13]: 13600 mg/kg
toxicity (acute, subacute and chronic) ([14]; ROCKFELLER mice and WISTAR rats): devoid of acute, subacute and chronic toxicity; also recorded: absence of acute toxicity
clinical and biological tolerance [14, 19]: tolerated perfectly on the clinical and biological planes
histologically detectable visceral lesion [14, 19]: does not result in any histologically detectable visceral lesion
anatomical anomaly of the viscera [15]: no anatomical anomaly was found
histopathological change of structure of the organs [15]: did not enable any histopathological change of structure of the organs examined to be detected

OC[C@@H](O)[C@H](O)[C@@H](O)CO [xylitol]
laxative effect ([4]; high doses): laxative in high doses

cyclamates
harmfulness ([4]; in vivo): subject of serious reservations on the part of the medical profession in regards to their harmfulness
